Experimental data from PMC10134273 (Cancer Medicine, 2023).

Tests used:
advanced solid tumors = test: Tumor response per RECIST v1.1; type: in vivo, human
Experimental: Secondary endpoints included PK parameters (e.g., maximum observed concentration [C max] and area under the concentration‐time curve [AUC]). Secondary endpoints included objective response rate (ORR), disease control rate (DCR), and duration of response (DOR) as assessed by investigator per RECIST v1.1. Tumor responses were assessed according to RECIST v1.1; computerized tomography scanning or magnetic resonance imaging was performed every 6 weeks in the first 48 weeks, and every 12 weeks thereafter. Secondary endpoints also included safety and tolerability (adverse events [AEs] as defined by the National Cancer Institute‐Common Terminology Criteria for Adverse Events CTCAE v5.0) and exploratory biomarkers (total bile acids, 7‐α‐hydroxy‐4‐cholesten‐3‐one [C4] and circulating FGF19). Safety follow‐up visit was performed within 30 days (±5 days) and 90 days (±7 days) after the last dose of the study treatment.
All patients who received at least one dose of the study treatment in the Phase 1 part of the study were included in the safety and efficacy analyses. Dose escalation and MTD assessment were primarily based on DLTs which occurred within the 28‐day observation period. Descriptive statistics were used for demographics, safety, and efficacy data. The number of patients who experienced DLTs (within and outside of the 28‐day DLT assessment period) was tabulated for each dose level. The sample size of patients required for dose escalation were determined based on the ‘3+3’ design and DLTs observed as the trial progressed.

[1] = test system: triple positive HCC tumors; conditions: cited from earlier work
[2] = 40 mg BID (N=3) + pembrolizumab
[3] = 60 mg BID (N=3) + pembrolizumab
[4] = 80 mg BID (N=6) + pembrolizumab
[5] = 80 mg BID group + pembrolizumab
[6] = 100 mg BID (N=7) + pembrolizumab

Compound: COCCNc1cc(NC(=O)N2CCCc3cc(CN4CCN(C)CC4=O)c(C=O)nc32)ncc1C#N [EVER4010001, roblitinib]
- Best overall response: Complete response (advanced solid tumors; [2]): 0 n (%)
- Best overall response: Not evaluable (advanced solid tumors; [2]): 0 n (%)
- Best overall response: Partial response (advanced solid tumors; [2]): 0 n (%)
- Best overall response: Progressive disease (advanced solid tumors; [2]): 1 (33.3) n (%)
- Best overall response: Stable disease (advanced solid tumors; [2]): 2 (66.7) n (%)
- Disease control rate (CR+PR+SD) (advanced solid tumors; [2]): 2 (66.7) n (%)
- Objective response (CR+PR) (advanced solid tumors; [2]): 0 n (%)
- DCR (advanced solid tumors; 40 mg BID group + pembrolizumab): 66.7%
- Best overall response: Complete response (advanced solid tumors; [3]): 0 n (%)
- Best overall response: Not evaluable (advanced solid tumors; [3]): 0 n (%)
- Best overall response: Partial response (advanced solid tumors; [3]): 0 n (%)
- Best overall response: Progressive disease (advanced solid tumors; [3]): 2 (66.7) n (%)
- Best overall response: Stable disease (advanced solid tumors; [3]): 1 (33.3) n (%)
- Disease control rate (CR+PR+SD) (advanced solid tumors; [3]): 1 (33.3) n (%)
- Objective response (CR+PR) (advanced solid tumors; [3]): 0 n (%)
- DCR (advanced solid tumors; 60 mg BID group + pembrolizumab): 33.3%
- Best overall response: Complete response (advanced solid tumors; [4]): 0 n (%)
- Best overall response: Not evaluable (advanced solid tumors; [4]): 1 (16.7) n (%)
- Best overall response: Partial response (advanced solid tumors; [4]): 1 (16.7) n (%)
- Best overall response: Progressive disease (advanced solid tumors; [4]): 2 (33.3) n (%)
- Best overall response: Stable disease (advanced solid tumors; [4]): 2 (33.3) n (%)
- Disease control rate (CR+PR+SD) (advanced solid tumors; [4]): 3 (50.0) n (%)
- Objective response (CR+PR) (advanced solid tumors; [4]): 1 (16.7) n (%)
- DCR (advanced solid tumors; [5]): 50%
- ORR (advanced solid tumors; [5]): 16.7%
- Best overall response: Complete response (advanced solid tumors; [6]): 0 n (%)
- Best overall response: Not evaluable (advanced solid tumors; [6]): 1 (14.3) n (%)
- Best overall response: Partial response (advanced solid tumors; [6]): 0 n (%)
- Best overall response: Stable disease (advanced solid tumors; [6]): 0 n (%)
- Disease control rate (CR+PR+SD) (advanced solid tumors; [6]): 0 n (%)
- Objective response (CR+PR) (advanced solid tumors; [6]): 0 n (%)
- DCR (advanced solid tumors; 100 mg BID group + pembrolizumab): 0%
- ORR (advanced solid tumors; across all doses, + pembrolizumab): 5.3%
- antitumor effect in preclinical models [1]: induced regression/stasis
